Test results reported in PubChem BioAssay AID686941 (The Scripps Research Institute Molecular Screening Center, 2013).

Assays:
[1] = biological target: Cytochrome P450 3A4 (Homo sapiens) (UniProt P08684); test: CYP3A4 and CYP3A5 inhibition, late-stage follow-up, counter-screen, biochemical, LC-MS/MS, purified recombinant enzymes (AID 686941); conditions: recombinant CYP3A4/CYP3A5, LC-MS/MS metabolite formation; CYP3A4
[2] = biological target: Cytochrome P450 3A5 (Homo sapiens) (UniProt P20815); test: as above; conditions: recombinant CYP3A4/CYP3A5, LC-MS/MS metabolite formation, CYP3A5
Chain of Cytochrome P450 3A5 (Homo sapiens) (P20815 whole entry, looked up): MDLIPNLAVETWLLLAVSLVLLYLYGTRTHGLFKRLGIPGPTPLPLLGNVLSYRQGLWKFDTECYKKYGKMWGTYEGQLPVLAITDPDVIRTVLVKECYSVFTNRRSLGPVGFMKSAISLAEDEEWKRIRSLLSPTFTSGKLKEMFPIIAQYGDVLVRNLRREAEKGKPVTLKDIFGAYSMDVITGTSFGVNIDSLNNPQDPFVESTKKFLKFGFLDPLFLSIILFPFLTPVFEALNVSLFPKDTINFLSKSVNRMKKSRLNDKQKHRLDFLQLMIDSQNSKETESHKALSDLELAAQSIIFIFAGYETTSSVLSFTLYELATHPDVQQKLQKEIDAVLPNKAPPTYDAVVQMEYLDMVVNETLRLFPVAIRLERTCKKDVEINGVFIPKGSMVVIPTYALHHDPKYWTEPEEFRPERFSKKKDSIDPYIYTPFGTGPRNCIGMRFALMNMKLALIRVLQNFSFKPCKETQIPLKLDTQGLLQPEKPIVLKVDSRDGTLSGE

Chain of Cytochrome P450 3A4 (Homo sapiens) (P08684 whole entry, looked up): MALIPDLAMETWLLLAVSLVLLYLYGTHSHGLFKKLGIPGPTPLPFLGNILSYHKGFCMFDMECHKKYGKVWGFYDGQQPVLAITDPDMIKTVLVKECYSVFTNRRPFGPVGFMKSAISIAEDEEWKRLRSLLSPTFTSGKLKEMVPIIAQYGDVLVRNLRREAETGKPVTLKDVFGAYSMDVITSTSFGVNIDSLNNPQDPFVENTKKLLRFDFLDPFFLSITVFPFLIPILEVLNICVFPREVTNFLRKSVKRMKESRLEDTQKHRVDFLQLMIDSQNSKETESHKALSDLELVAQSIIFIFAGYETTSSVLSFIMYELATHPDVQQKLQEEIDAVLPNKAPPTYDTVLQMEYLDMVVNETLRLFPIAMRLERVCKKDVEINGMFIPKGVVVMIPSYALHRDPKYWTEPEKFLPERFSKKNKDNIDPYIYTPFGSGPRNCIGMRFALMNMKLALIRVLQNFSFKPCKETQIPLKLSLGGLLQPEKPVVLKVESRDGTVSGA

SMILES | IC50 [1] [µM] | IC50 [2] [µM] | inhibition ([2]; at 60 µM, stronger effect = higher value) [%]
O=C(Nc1ccc(-c2ccc3ccccc3c2)cc1)Nc1ccc(-c2ccnc3nc[nH]c23)cc1 | 1.7 | 13 | –
NC(=O)c1ccc(-c2ccc(NC(=O)Nc3ccc(-c4ccnc5nc[nH]c45)cc3)cc2)cc1 | > 0.2 | – | 26
